Converted amounts (≈) assume the structure as drawn. Read-outs that look alike come from different tables or passages of the source.
Assays:
[1] = system: hepatic glutathione status; conditions: rats with sepsis, diet supplemented with cysteine; cited from earlier work
[2] = Stability in water, autoclave 121° C. for 15 minutes; assay type: physicochemical; conditions: after 121° C. for 15 minutes
Procedure: (§1) The stability of the cystathionine compared to that of cysteine was tested with deionized water and in various liquid enteral formulae (SONDALIS and REABILAN). REABILAN and SONDALIS (registered trademarks) are different enteral compositions comprising 35% of energy in the form of lipids, 50-52.5% in the form of carbohydrates, in particular of maltodextrins and starches, 12.5-15% in the form of peptides or proteins, and also comprising vitamins, mineral salts and other compounds such as taurine or L-camitine.
(§2) The cystathionine was added at its maximum level of solubility in water at 25° C., i.e. 0.6 mg/mL of water. The mixture was treated at 121° C. for 15 minutes in an autoclave and was analyzed.
In water, cystathionine is very stable, even after treatment at 121° C. for 15 minutes, since the degree of recovery is 100%, and the cysteine is slightly oxidized to cystine (6%).

[3] = assay type: physicochemical; conditions: for L-cysteine (3 mM) Evaluated loss / L-cysteine (3 mM) Free cysteine / L-cysteine (3 mM) Oxidized cysteine / L-cystathionine (3 mM) Evaluated loss: 121° C. for 15 minutes in an autoclave
Procedure: as §1
Stability Under Harsh Sterilization Conditions (121° C.-15 min) at 3 mM Concentration
Unlike cysteine, the cystathionine is found to be very stable.
In the enteral formulae, and after heat treatment, the amount of available cysteine decreases very substantially, and the relative loss of cysteine increases when the amount added decreases.

[4] = Stability under THA sterilization conditions (140° C.-15″), 43 mM in SONDALIS; assay type: physicochemical; conditions: THA sterilization 140° C.-15″
Procedure: Stability Under THA Sterilization Conditions (140° C.-15''), at High Concentration (43 mM) in […] […] The THA conditions therefore conventionally induce much less degradation than those described above, but slightly more than industrial UHT conditions. The high concentration (43 mM) was chosen because it falls within the average of that which may be recommended in enteral nutrition products. Under these conditions, the losses of cysteine are lower than for the harsh sterilization conditions (121° C.-15') but remain much too high (27%) for use in a nutrition product.

[5] = Maximum solubility in water; assay type: physicochemical; conditions: water at 25° C.; read-out: maximum level of solubility in water
Procedure: as §2

glutathione status = experiment: Physiological effectiveness: diet supplementation in infected rats (sepsis), glutathione concentration; assay type: in vivo; conditions: standard protein diet supplemented with cystathionine, compared with cysteine positive control group
Excerpt: Groups of sick rats receiving differentiated diets are compared with regard to the glutathione concentration in various organs but especially in the liver. The liver is in fact the major organ for regulating glutathione synthesis in terms of the whole body. The compared groups received a standard protein diet supplemented either with an amino acid considered to be neutral with respect to glutathione (alanine) (control group), or with cysteine (positive control group), or with cystathionine (test group). A group of animals which are not sick is also realized (normal group).

| SMILES | hepatic glutathione status [1] | oxidized to cystine [2] | stability in the enteral formulae before heat treatment [3] | L-cysteine (3 mM) Evaluated loss ([3]; REABILAN) | L-cysteine (3 mM) Free cysteine ([3]; REABILAN) | L-cysteine (3 mM) Oxidized cysteine ([3]; REABILAN) | L-cysteine (3 mM) Evaluated loss ([3]; SONDALIS) | L-cysteine (3 mM) Free cysteine ([3]; SONDALIS) | L-cysteine (3 mM) Oxidized cysteine ([3]; SONDALIS) | L-cysteine (43 mM) Evaluated loss [4] | L-cysteine (43 mM) Free cysteine [4] | L-cysteine (43 mM) Oxidized cysteine [4] | L-cysteine (43 mM) Evaluated loss ([4]; listed as cysteine) | solubility [5] | L-cystathionine (3 mM) Evaluated loss ([3]; REABILAN) | L-cystathionine (3 mM) Evaluated loss ([3]; SONDALIS) | L-cystathionine (43 mM) Evaluated loss [4] | L-cystathionine (43 mM) Non-degraded form [4] | L-cystathionine (43 mM) Evaluated loss ([4]; listed as cystathionine) | glutathione concentration (glutathione status) |
| --- | --- | --- | --- | --- | --- | --- | --- | --- | --- | --- | --- | --- | --- | --- | --- | --- | --- | --- | --- | --- |
| N[C@@H](CS)C(=O)O [L-cysteine, cysteine] | re-establish hepatic glutathione status at the level of a normal animal | 6% | relatively unstable | 83% | 12% | 5% | 86% | 11% | 3% | 27% | 66% | 7% | 27% | – | – | – | – | – | – | – |
| N[C@@H](CCSC[C@H](N)C(=O)O)C(=O)O [L-cystathionine, cystathionine] | – | – | very stable | – | – | – | – | – | – | – | – | – | – | 600 µg/mL (≈ 2700 µM) | 0% | 17% | 4% | 96% | at the limit of reproducibility of the assaying method | level equivalent to that of the positive control group |

— US20050064014A1, “Use of cystathionine” (priority 2001, published 2005)
